Like-named read-outs stand apart in the source and are kept apart here.

The target of test [1] is T1, AgIMPDH (Eremothecium gossypii, UniProt Q756Z6). Kind of test: IMPDH activity assay and enzyme kinetics (NADH absorbance at 340 nm), AgIMPDH. The test is classed as biochemical, A. gossypii. The settings on record: for effect on AgIMPDH catalytic activity in vitro: adenine nucleotides; for α (substrate–inhibitor heterotropic cooperative interaction) / β (fractional activity of the ternary enzyme–substrate-inhibitor complex): mixed inhibition model. The protocol:
(§1) IMPDH activity was assayed by monitoring the reduction of NAD^+ to NADH and the subsequent increase in absorbance at 340 nm in buffer: 100 mM Tris-HCl, 100 mM KCl, 2 mM DTT pH 8.0. […] When Mg^+2 was included in the reaction, the total concentration of MgCl2 was 5 mM. The experimental data were fitted to the Michaelis–Menten equation of enzyme kinetics using the OriginPro software (OriginLab Corporation), to obtain the maximum apparent initial velocity (Vmax^app) and the apparent Michaelis–Menten constant (KM^app):
(§2) Following this equation, the global nonlinear regression analysis of Vmax^app and KM^app, as a function of the inhibitor concentration, allowed the intrinsic Michaelis–Menten constant (KM) and inhibition constant (Ki) for competitive inhibition to be determined. The substrate–inhibitor heterotropic cooperative interaction and the fractional activity of the ternary enzyme–substrate–inhibitor complex, α and β respectively, were estimated using a mixed inhibition model:
(§3) The constant α reflects the effect of the inhibitor on the apparent affinity of the enzyme for the substrate.

The next test addresses T2, HsIMPDH2 (Homo sapiens, UniProt P12268).
T2 construct: His8 (modified pET15b vector, TEV site) (N); made in house
Kind of test: IMPDH activity assay and enzyme kinetics, HsIMPDH2. The settings on record: for effect on catalytic activity: ATP with or without 5 mM MgCl2; for α (substrate–inhibitor heterotropic cooperative interaction) / β (fractional activity of the ternary enzyme–substrate-inhibitor complex): mixed inhibition model. The test is classed as biochemical. The protocol: as §1, §2, §3

The target in the next test is T3, HsIMPDH1 (Homo sapiens, UniProt P20839).
T3 construct: His8 (modified pET15b vector, TEV site) (N); made in house
T3 sequence (P20839 whole entry): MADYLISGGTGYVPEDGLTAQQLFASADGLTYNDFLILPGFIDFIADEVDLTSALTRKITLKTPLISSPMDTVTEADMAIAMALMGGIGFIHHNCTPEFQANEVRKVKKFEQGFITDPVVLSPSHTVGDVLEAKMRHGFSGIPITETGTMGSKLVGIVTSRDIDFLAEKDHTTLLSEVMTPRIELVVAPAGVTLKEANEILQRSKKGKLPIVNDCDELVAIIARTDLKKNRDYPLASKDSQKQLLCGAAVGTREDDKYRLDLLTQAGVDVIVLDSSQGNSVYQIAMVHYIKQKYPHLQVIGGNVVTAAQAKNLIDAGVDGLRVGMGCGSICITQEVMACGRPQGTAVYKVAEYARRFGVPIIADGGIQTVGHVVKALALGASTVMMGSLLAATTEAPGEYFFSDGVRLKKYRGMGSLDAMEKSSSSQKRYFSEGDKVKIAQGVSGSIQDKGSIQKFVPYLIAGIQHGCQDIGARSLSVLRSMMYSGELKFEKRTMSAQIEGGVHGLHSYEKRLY
Kind of test: IMPDH activity assay and enzyme kinetics, HsIMPDH1. Type of test: biochemical. The settings on record: for effect on catalytic activity: ATP with or without 5 mM MgCl2; for α (substrate–inhibitor heterotropic cooperative interaction) / β (fractional activity of the ternary enzyme–substrate-inhibitor complex): mixed inhibition model. The protocol: as §1, §2, §3

The next test deals with T4, EcIMPDH (Escherichia coli, UniProt P0ADG7).
T4 construct: His8 (TEV site) (N, cleaved yes); made in house; host or cells: E. coli BL21 (DE3)
T4 sequence (P0ADG7 whole entry): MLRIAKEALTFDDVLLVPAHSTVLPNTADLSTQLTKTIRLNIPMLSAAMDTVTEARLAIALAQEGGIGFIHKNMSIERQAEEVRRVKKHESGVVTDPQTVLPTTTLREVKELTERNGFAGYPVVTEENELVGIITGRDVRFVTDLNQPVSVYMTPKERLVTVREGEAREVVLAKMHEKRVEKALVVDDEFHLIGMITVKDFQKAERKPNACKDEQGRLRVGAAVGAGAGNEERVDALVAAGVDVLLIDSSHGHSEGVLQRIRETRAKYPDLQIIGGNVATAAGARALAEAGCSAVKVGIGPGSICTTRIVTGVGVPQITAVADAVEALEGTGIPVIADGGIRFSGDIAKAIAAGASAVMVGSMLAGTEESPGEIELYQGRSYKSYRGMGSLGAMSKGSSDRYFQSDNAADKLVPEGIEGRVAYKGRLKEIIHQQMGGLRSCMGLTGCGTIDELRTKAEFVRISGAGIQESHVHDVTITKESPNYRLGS
Briefly: biochemical. Type of test: biochemical. The settings on record: for effect on catalytic activity: ATP with or without 5 mM MgCl2. How it is done:
as §1, §2, §3

For another test, the target named is T5, BsIMPDH (Bacillus subtilis, UniProt P21879).
T5 construct: His8 (TEV site) (N, cleaved yes); made in house; host or cells: E. coli BL21 (DE3)
T5 sequence (P21879 whole entry): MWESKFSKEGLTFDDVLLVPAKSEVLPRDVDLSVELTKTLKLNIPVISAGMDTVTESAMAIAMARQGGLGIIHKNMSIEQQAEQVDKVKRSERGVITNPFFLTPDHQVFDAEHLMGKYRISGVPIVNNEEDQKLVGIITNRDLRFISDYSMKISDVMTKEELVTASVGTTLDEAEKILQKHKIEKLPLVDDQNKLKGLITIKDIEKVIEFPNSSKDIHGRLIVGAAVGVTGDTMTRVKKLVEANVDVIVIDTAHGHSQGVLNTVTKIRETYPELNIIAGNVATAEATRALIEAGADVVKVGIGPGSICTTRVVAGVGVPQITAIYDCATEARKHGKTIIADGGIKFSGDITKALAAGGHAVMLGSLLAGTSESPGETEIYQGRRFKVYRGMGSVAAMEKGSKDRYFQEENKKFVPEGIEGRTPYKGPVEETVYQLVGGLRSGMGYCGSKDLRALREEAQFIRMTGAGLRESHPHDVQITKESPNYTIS
Briefly: biochemical. The test is classed as biochemical, Bacillus subtillis. The settings on record: for effect on catalytic activity: ATP with or without 5 mM MgCl2. The protocol: as §1, §2, §3

A further test has as its system AgIMPDH ΔBateman. Kind of test: IMPDH activity assay, mutant lacking the Bateman domain. Type of test: biochemical, A. gossypii. The settings on record: 2 mM nucleotide. How it is done:
IMPDH activity was assayed by monitoring the reduction of NAD^+ to NADH and the subsequent increase in absorbance at 340 nm in buffer: 100 mM Tris-HCl, 100 mM KCl, 2 mM DTT pH 8.0. […] When Mg^+2 was included in the reaction, the total concentration of MgCl2 was 5 mM. The experimental data were fitted to the Michaelis–Menten equation of enzyme kinetics using the OriginPro software (OriginLab Corporation), to obtain the maximum apparent initial velocity (Vmax^app) and the apparent Michaelis–Menten constant (KM^app): […]

Test [2] has as its target T1, AgIMPDH. The settings on record: GMP titration, WT.
Protocol: (§4) Standard ITC experiments were performed using an AutoITC200 system (Malvern Instruments). […] The resulting heats were integrated and fitted to a single binding site model implemented in the software package Origin (OriginLab Corporation).
Another test has as its target AgIMPDH-ΔBateman (Eremothecium gossypii, UniProt Q756Z6, DEL116-235/INS115SQDG). Briefly: Isothermal titration calorimetry, AgIMPDH-ΔBateman. The test is classed as binding, A. gossypii. Background: Isothermal titration calorimetry measures the heat released or taken up as one component is titrated into another.
Test [3] has as its target T1, AgIMPDH. Briefly: biochemical.
Protocol: as §4

Protocol for AgIMPDH-ΔBateman: as §4

`Nc1ncnc2c1ncn2[C@@H]1O[C@H](COP(=O)(O)O)[C@@H](O)[C@H]1O` [AMP]: the “effect on AgIMPDH catalytic activity in vitro” value (from here on “effect … in vitro”) on AgIMPDH [1] is given as “did not exert any significant effect”.
Regarding `Nc1ncnc2c1ncn2[C@@H]1O[C@H](COP(=O)(O)OP(=O)([O-])OP(=O)([O-])O)[C@@H](O)[C@H]1O.[Mg+2]` [Mg-ATP], the “effect on catalytic activity” value on HsIMPDH2, at HsIMPDH1, at EcIMPDH and on BsIMPDH was “neither ATP nor Mg-ATP showed a significant effect” in each case. In addition, on AgIMPDH [1] (total MgCl2 5 mM), the “effect on catalytic activity of AgIMPDH (Vmax app/Vmax, KM app/KM)” value is “not affected”.
Regarding `Nc1nc2c(ncn2[C@@H]2O[C@H](COP(=O)(O)OP(=O)(O)OP(=O)(O)O)[C@@H](O)[C@H]2O)c(=O)[nH]1` [GTP, guanosine-5′-triphosphate], the “Inhibition (type)” value at HsIMPDH2 was “Mixed type”; on HsIMPDH1 it was “Mixed type”; on EcIMPDH, “Competitive”; at AgIMPDH [1] it was “Mixed type”; at BsIMPDH it was “No”. Further, the figures for the Ki at HsIMPDH2, at HsIMPDH1 and at AgIMPDH [1] (read-out: Ki) were 480 ± 60 µM, 540 ± 60 µM and 160 ± 40 µM, respectively. The entries for the “α (substrate–inhibitor heterotropic cooperative interaction)” value at HsIMPDH2, on HsIMPDH1 and at AgIMPDH [1] were 3.0±0.4, 3.8±0.5 and 4.1±0.7, respectively. Besides, the “β (fractional activity of the ternary enzyme–substrate-inhibitor complex)” value on HsIMPDH2 is 0.51±0.08; at HsIMPDH1, 0.11±0.04; on AgIMPDH [1] it was 0.24±0.05. In the test on AgIMPDH ΔBateman, the “effect on enzymatic activity of ΔBateman mutant (KM app/KM)” value (from here on “effect … of ΔBateman mutant (KM app/KM)”) was “not significantly affected”.
Take `Nc1ncnc2c1ncn2[C@@H]1O[C@H](COP(=O)(O)OP(=O)(O)O)[C@@H](O)[C@H]1O` [ADP]: the “effect … in vitro” value at AgIMPDH [1] is reported as “did not exert any significant effect”.
As to `Nc1nc2c(ncn2[C@@H]2O[C@H](COP(=O)(O)OP(=O)(O)O)[C@@H](O)[C@H]2O)c(=O)[nH]1` [GDP, guanosine-5′-diphosphate], the “Inhibition (type)” value is “Mixed type” at HsIMPDH2; “Mixed type” at HsIMPDH1; “No” on EcIMPDH; “Mixed type” on AgIMPDH [1]; “Mixed type—weak” on BsIMPDH. Besides, the Ki at HsIMPDH2 is 610 ± 60 µM; at HsIMPDH1, 230 ± 40 µM; at AgIMPDH [1] (read-out: Ki) it was 210 ± 40 µM; at BsIMPDH, 2300 ± 400 µM. Further, the “α (substrate–inhibitor heterotropic cooperative interaction)” value was determined as 6.6±0.8 on HsIMPDH2, 4.7±0.7 at HsIMPDH1, 6.5±0.8 at AgIMPDH [1] and 2.9±0.4 at BsIMPDH (mixed inhibition model). Moreover, the “β (fractional activity of the ternary enzyme–substrate-inhibitor complex)” value on HsIMPDH2 is 0.14±0.05; on HsIMPDH1, 0.12±0.04; on AgIMPDH [1], 0.033±0.005; on BsIMPDH (mixed inhibition model), 0.8±0.1. Besides, the “effect … of ΔBateman mutant (KM app/KM)” value in the test on AgIMPDH ΔBateman is reported as “not significantly affected”.
`Nc1ncnc2c1ncn2[C@@H]1O[C@H](COP(=O)(O)OP(=O)(O)OP(=O)(O)O)[C@@H](O)[C@H]1O` [ATP]: the “effect on catalytic activity” value on HsIMPDH2, on HsIMPDH1, on EcIMPDH and at BsIMPDH was “neither ATP nor Mg-ATP showed a significant effect” in each case. Moreover, the “effect … in vitro” value on AgIMPDH [1] is given as “did not exert any significant effect”.
Turning to `Nc1nc2c(ncn2[C@@H]2O[C@H](COP(=O)(O)O)[C@@H](O)[C@H]2O)c(=O)[nH]1` [GMP, guanosine-5′-monophosphate], the “n (binding stoichiometry)” value was 0.9 on AgIMPDH [2] and 1.0 at AgIMPDH-ΔBateman (GMP titration, ΔBateman). The ΔH is -9.1 kcal/mol on AgIMPDH [2] and -7.7 kcal/mol on AgIMPDH-ΔBateman (GMP titration, ΔBateman). Further, the “Inhibition (type)” value at HsIMPDH2, at HsIMPDH1, on EcIMPDH, at AgIMPDH [1] and on BsIMPDH was “Competitive” in each case. In addition, the Kd came to 22 µM on AgIMPDH-ΔBateman and 24 µM at AgIMPDH [3]. The inhibition constant Ki at EcIMPDH came out at 1100 ± 100 µM; at AgIMPDH [1], 600 ± 100 µM; on BsIMPDH, 420 ± 70 µM. For the same molecule, the “effect … of ΔBateman mutant (KM app/KM)” value with AgIMPDH ΔBateman is “inhibited the wild-type and ΔBateman enzymes in a similar manner”.

Usually Ki stands for a dissociation constant, usually derived from enzyme kinetics or from competition with a known ligand. A word on the Kd: it is the free concentration of one partner at which half of the binding sites on the other are occupied at equilibrium, for simple one-to-one binding.

Source of the values: article PMC4660370 (Nature Communications, 2015).
